According to patent US8299096B2, “Method for treating pulmonary diseases using rho kinase inhibitor compounds” (priority 2008, dated 2012):
Like-named read-outs stand apart in the source and are kept apart here.

Assays:
ROCK1 = target: T1, ROCK1 (Homo sapiens, UniProt Q13464); assay: Rho kinase inhibition assay (IMAP), ROCK1; assay type: biochemical
T1 construct: purchased Upstate/Chemicon 14-601
Description: Following the pre-incubation, 10 μM ATP was added to initiate the reaction. After 60 minutes at room temperature, Molecular Devices IMAP™ binding solution was added to bind phosphorylated substrate. After 30 minutes of incubation in the presence of the IMAP™ beads, the fluorescence polarization was read and the ratio was reported as mP. IC50 values for compounds and EC50 values for ATP were calculated using the Prism software from Graphpad.

[1] = Compound plasma concentrations in mice at 15 min post administration; assay type: in vivo, mouse; conditions: mouse
Description: Additionally, compound concentrations were determined in the plasma and lungs of male, ovalbumin-sensitized, Balb/c mice from a murine model of asthma. Test compounds were formulated in water or 1% polysorbate 80 and dosed at 15 μmol/kg for intraperitoneal (IP) or oral (PO) administration or formulated for intratracheal (IT) administration and dosed at 5 μmol/kg, which directly targets the lungs. Following completion of the in vivo study, mice were euthanized and blood and plasma collected approximately 2.5-3 hours post administration of test compound for bronchodialator (BD) studies and 24 hours post administration for anti-inflamatory (AI) studies. Lungs were homogenized in Matrix A lysing tubes using a FastPrep 24 tissue and cell homogenizer (MP Biomedicals, Solon, Ohio). Both plasma samples and lung extracts were assayed for compound concentrations using an on-line, solid phase extraction LC/MS/MS system.

p70S6K = target: T2, p70S6K (Homo sapiens, UniProt P23443, T412E); assay: p70S6K inhibition assay (IMAP); assay type: biochemical
T2 construct: purchased Upstate Chemicon 14-486
T2 sequence (P23443 1-421 T412E limits assumed): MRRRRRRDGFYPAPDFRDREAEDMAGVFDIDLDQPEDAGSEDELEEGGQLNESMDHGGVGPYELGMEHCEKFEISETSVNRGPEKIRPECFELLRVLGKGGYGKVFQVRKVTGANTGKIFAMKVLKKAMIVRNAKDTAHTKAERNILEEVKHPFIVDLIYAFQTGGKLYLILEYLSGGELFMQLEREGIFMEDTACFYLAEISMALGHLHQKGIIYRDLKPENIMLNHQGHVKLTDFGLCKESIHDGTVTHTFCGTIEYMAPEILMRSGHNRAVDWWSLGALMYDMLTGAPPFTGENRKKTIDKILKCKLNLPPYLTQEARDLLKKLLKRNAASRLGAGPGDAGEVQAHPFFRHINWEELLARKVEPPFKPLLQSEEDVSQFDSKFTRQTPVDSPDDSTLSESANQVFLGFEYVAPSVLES
Description: Inhibition of Akt3 and p70S6K activity was determined using the IMAP™ FP Progressive Binding Kit (Molecular Devices product number R8127). […] Following the pre-incubation, 30 M ATP was added to initiate the reaction. After 60 minutes at RT, Molecular Devices IMAP™ binding solution was added to bind phosphorylated substrate. After 30 minutes of incubation in the presence of the IMAP™ beads the fluorescence polarization was read and the ratio was reported as mP. IC50 results were calculated using the Prism software from Graphpad. The Ki values were determined according to the following formula: Ki=IC50/(1+([ATP Challenge]/EC50 ATP)).

GCK = target: T3, GCK (Homo sapiens, UniProt Q12851); assay: Kinase panel screen, GCK; assay type: biochemical; conditions: 1 μM test compound, 10 μM ATP
T3 construct: purchased Upstate, Millipore Bioscience Division (KinaseProfiler service)
T3 sequence (Q12851 1-820): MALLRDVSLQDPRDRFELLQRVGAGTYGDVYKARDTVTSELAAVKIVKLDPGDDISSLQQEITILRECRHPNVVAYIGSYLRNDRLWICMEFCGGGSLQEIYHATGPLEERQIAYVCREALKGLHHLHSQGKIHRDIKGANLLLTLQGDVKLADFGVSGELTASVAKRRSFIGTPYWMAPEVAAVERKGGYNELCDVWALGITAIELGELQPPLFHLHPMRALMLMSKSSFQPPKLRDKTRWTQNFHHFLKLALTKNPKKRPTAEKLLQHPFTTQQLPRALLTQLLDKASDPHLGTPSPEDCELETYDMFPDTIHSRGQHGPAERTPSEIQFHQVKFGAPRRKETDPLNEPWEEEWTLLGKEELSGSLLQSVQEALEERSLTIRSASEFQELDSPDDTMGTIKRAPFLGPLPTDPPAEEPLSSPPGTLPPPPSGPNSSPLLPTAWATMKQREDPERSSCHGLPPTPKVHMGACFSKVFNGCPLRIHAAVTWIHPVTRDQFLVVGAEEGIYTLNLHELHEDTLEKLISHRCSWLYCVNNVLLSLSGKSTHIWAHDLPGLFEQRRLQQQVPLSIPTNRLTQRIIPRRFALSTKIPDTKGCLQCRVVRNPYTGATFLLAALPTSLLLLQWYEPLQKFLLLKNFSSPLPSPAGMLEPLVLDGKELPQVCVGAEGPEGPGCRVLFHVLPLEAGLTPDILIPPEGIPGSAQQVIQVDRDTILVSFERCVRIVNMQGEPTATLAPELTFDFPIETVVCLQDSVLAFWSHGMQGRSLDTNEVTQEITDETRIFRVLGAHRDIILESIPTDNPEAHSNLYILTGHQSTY
Description: (§1) Compounds of Formulae I and II were examined for activity against a selected panel of kinases using the KinaseProfiler™ enzyme profiling services (Upstate, Millipore Bioscience Division). Percent kinase activity at 10 μM and 1 μM test compound and 10 μM ATP was determined against 40 wild-type recombinant human kinases according to Upstate's standard protocol: ASK1, BTK, CSK, c-RAF, GCK, GSK3β, IKKα, IKKβ, IRAK1, IRAK4, JNK1α1, JNK2α2, JNK3, ERK1, ERK2, MAPKAP-K2, MAPKAP-K3, MEK1, MKK4, MKK6, MKK7β, Mnk2, MSK1, PAK3, PDK1, PRAK, ROCK1, Rsk2, SAPK2a, SAPK2b, SAPK3, SAPK4, SRPK1, SRPK2, Syk, TAK1, TBK1, PI3-Kβ, PI3-Kγ, PI3-Kδ.

Mnk2 = target: T4, Mnk2 (Homo sapiens, UniProt Q9HBH9); assay: Kinase panel screen, Mnk2; assay type: biochemical; conditions: 10 μM ATP
T4 construct: purchased Upstate, Millipore Bioscience Division (KinaseProfiler service)
T4 sequence (Q9HBH9 whole entry): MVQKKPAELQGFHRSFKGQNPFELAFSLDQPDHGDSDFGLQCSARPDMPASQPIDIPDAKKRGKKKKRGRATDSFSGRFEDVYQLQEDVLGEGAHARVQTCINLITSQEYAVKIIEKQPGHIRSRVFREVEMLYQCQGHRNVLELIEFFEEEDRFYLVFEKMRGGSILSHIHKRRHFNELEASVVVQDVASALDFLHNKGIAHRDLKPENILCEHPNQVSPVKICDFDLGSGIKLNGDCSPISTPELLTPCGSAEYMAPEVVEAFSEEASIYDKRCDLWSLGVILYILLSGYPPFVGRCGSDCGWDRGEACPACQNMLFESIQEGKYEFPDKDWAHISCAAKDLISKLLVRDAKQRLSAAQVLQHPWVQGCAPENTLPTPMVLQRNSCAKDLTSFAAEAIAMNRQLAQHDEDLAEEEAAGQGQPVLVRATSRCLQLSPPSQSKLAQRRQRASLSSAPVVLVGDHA
Description: as §1

IRAK1 = target: T5, IRAK1 (Homo sapiens, UniProt P51617); assay: Kinase panel screen, IRAK1; assay type: biochemical; conditions: 10 μM ATP
T5 construct: purchased Upstate, Millipore Bioscience Division (KinaseProfiler service)
T5 sequence (P51617 whole entry): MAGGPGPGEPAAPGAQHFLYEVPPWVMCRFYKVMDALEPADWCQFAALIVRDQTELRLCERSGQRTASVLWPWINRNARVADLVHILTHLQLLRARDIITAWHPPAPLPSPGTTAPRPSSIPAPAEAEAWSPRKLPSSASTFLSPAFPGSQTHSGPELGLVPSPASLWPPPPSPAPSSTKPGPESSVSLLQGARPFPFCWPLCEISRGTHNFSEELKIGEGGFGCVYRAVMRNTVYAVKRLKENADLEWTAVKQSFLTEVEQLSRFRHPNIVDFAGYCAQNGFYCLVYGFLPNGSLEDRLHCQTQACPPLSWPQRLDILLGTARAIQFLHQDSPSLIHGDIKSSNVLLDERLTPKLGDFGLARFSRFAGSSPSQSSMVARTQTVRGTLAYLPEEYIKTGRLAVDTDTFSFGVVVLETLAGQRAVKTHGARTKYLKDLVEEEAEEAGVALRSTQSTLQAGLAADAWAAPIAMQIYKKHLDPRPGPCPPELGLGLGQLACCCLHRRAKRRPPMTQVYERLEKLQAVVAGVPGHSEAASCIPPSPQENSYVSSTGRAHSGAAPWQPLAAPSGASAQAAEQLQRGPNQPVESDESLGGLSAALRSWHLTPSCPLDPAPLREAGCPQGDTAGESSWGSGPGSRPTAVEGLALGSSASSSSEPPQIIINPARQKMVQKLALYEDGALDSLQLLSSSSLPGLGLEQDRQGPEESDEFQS
Description: as §1

IRAK4 = target: T6, IRAK4 (Homo sapiens, UniProt Q9NWZ3); assay: Kinase panel screen, IRAK4; assay type: biochemical; conditions: 10 μM ATP
T6 construct: purchased Upstate, Millipore Bioscience Division (KinaseProfiler service)
T6 sequence (Q9NWZ3 1-460): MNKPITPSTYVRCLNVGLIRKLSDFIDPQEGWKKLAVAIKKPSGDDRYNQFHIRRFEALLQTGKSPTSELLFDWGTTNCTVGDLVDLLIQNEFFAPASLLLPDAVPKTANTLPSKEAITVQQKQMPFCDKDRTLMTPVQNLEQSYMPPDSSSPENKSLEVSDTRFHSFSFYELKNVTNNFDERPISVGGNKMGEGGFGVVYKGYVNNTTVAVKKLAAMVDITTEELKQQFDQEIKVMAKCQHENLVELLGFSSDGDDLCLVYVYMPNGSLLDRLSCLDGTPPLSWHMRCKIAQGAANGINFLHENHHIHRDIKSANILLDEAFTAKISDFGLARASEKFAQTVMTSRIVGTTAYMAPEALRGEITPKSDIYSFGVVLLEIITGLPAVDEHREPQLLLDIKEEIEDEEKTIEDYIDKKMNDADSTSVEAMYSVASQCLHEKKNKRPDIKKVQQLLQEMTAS
Description: as §1

[2] = test system: ovalbumin-sensitized mice; assay: Prevention of airway hyperreactivity development, anti-inflammatory dosing paradigm (Penh); assay type: in vivo, mouse; conditions: intratracheal, once a day, days 27 to 30 (1.091) or 27 to 31
LPS-challenged mice = assay: LPS-induced neutrophilia and cytokine production assay; assay type: in vivo, mouse; conditions: intratracheal administration, LPS-challenged mice
Description: Male BALB/c mice, approximately 19 to 21 grams, were ordered from Charles River Laboratories (Raleigh, N.C.). All animals were challenged with aerosolized LPS (10 μg/ml) for 25 minutes on study day 0. LPS aerosol was generated using an Aerogen Aeroneb nebulizer and controller providing a flow of 400 μl/min and a particle size of 2-4 μm MMAD. Rolipram was administered i.p at 20 mg/kg. […] Four hours following LPS challenge, BALF was collected using a total of 3 ml of 0.9% sodium chloride containing 10% fetal calf serum. Total cell counts were determined using the Coulter Counter. For differential evaluations, BALF was centrifuged and cytospin slides prepared and stained with Hema3 stain. Manual leukocyte counts were then completed on 200 cells. The final concentration of individual leukocyte cell types per ml of BALF was determined by multiplication of the relative percentage of individual leukocytes with the total amount of cells/ml of BALF fluid. The concentration of IL-1β in the BALF samples was determined using commercially available Bio-plex kits (Bio-Rad). The analysis of cytokine levels was measured using the Bio-Plex 200 (Bio-Rad) system according to the manufacturer's instructions.

rat tracheal rings = assay: Tracheal relaxation assay, carbachol precontracted rings; conditions: average percentage of carbachol-induced rat trachael ring contraction at 1 μM of test compound
Description: Trachea were excised, cleaned of connective tissue and cut into cylindrical segments of 2-3 mm length. Two stainless steel wires were guided through the lumen of the tracheal ring. One wire was fixed in the tissue bath and the other was connected to a force transducer via surgical silk. […] Indomethacin (1 μM), a cyclooxygenase inhibitor, was added to the Krebs buffer and was present throughout the experiments. Contractile tensions were measured using an isometric force transducer (Grass Instruments) and signals were analyzed using specialized software (Chart v5.5, ADInstruments). The preparations were allowed to equilibrate at a resting tension of 0.3 to 0.5 gm prior to two challenges with 60 mM KCl to assess tissue viability. After washing, tissues were treated with 1 μM carbachol for 10 to 15 minutes to induce a contractile response. Test Compounds were added cumulatively to the bath every 30 minutes and reductions in tension were recorded. Basal tension was subtracted from all values and data were reported as a percentage of the maximal carbachol-induced contraction. Data were fit to the Hill equation using GraphPad Prism v5 software.

[3] = test system: ovalbumin-sensitized mice; assay: Bronchodilator assay in ovalbumin-sensitized mouse model of asthma (Penh); assay type: in vivo
Description: Male BALB/c mice were ordered from Charles River Laboratories (Raleigh, N.C.). The animals were approximately 19 to 21 grams at time of receipt. Upon arrival, the animals were randomized into groups of five males per cage and assigned to a dosing group. Animals were quarantined for 7 days under test conditions. They were observed daily for general health status and ability to adapt to the water bottles.
Animals were sensitized on day 0 and 14 of study by an intraperitoneal injection with 20 μg of ovalbumin (ova) and 2.0 mg aluminum hydroxide (alum) which initiates the development of a specific T-helper (Th) cells type 2 resulting in asthmatic animals. One group of animals received an injection of saline to use as non-asthmatic control animals. All animals were challenged with aerosolized 1% ova once daily for 25 minutes on days 28, 29, and 30 (Zosky, et al. Respiratory Research, 2004; 5:15). Aerosol challenge consists of using an Aerogen Aeroneb nebulizer and controller with a particle size of 4-6 μm mass median aerodynamic diameter (MMAD) with a distribution of 400 μl per minute. This aerosol challenge is necessary to target the Th2-driven allergic inflammation in the lower airways.
The test compounds and the control vehicle were administered to animals on the day of airway hyperreactivity evaluation 30 minutes to 1 hour before the evaluation to determine the bronchodilator effects of the compounds according to the bronchodilator dosing paradigm (FIG. 3A). Compounds were administered p.o. (orally), i.p. (intraperitoneally) at 15 μMol/kg unless otherwise noted (Table 4). Alternatively, compounds were administered i.t. (intratracheally) at varying doses as shown (FIG. 3B). On day 32 of the experiment, airway hyperreactivity was evaluated by placing conscious, unrestrained animals in a whole body plethysmometer (Buxco Wilmington, N.C.) and exposing them to escalating doses of nebulized methacholine, a known bronchial constrictor which acts through the muscarinic receptors of the lungs, (doses: […]-50 mg/ml). Exposure to the methacholine doses consisted of a 3 minute period during which a nebulizer was aerosolizing the methacholine and an additional 3 minute period following the cessation of nebulization. Over this 6 minute period, the plethysmometer monitors and generates numerical values for all parameters of the breath pattern. Enhanced pause (Penh), a unitless index of airway hyperreactivity, is derived from the expiratory side of the respiratory waveform measured via the plethysmograph and is used as an indirect measure of airway resistance and hyperreactivity. […] Following the methacholine dose response, all animals were anesthetized, bled and euthanized.
Within each experiment, a mouse was given a single compound and exposed to increasing doses of methacholine [0 (baseline), 0.375, 0.75, 1.5, 3, 6, 12, 25, 50 mg/ml]. The Penh value at each of the dose levels of methacholine represents the 6-minute average response. Change from baseline (CFB) in Penh was calculated at each methacholine dose and the area under the curve (AUC) for these CFB values was calculated using the trapezoidal rule. This same approach was applied for each mouse across multiple experiments.
For statistical analyses, a linear mixed-effects model where the response was the log 10 transformed value of AUC described above was used. Data from equal experimental conditions across experiments performed on different days were pooled for statistical analysis and data reporting. The various compounds were compared adjusting for the log 10-transformed baseline value of Penh and the chamber (1 of 10) of the plethysmometer each mouse was contained in during an experiment. A random intercept for each experiment was assumed to account for possible similarities of the results obtained from a given experiment (i.e., as a “blocking effect”).
For Table 4 and Table 5, Penh values are reported as log 10 transformed AUC values. […]

[4] = Rat oral pharmacokinetics (plasma); assay type: in vivo
Description: Plasma (EDTA K2 anticoagulant) was collected from male, cannulated, CD Sprague Dawley rats to determine the pharmacokinetics of formulations containing compound inhibitors of Rho kinase. Each animal was dosed orally with a 4 ml/kg solution or suspension of each test compound in 10 mM acetate buffered saline, pH 4.5 at a final concentration range of 20-30 μmol/kg. Blood was collected at 0.25, 0.5, 1, 2, 4, 6, 8, and 24 hours. Plasma samples were assayed for the concentration of the test compound using an on-line, solid phase extraction LC/MS/MS analysis system.
Samples were analyzed on a QSTAR Elite, hybrid quadrupole time-of-flight mass spectrometer (Applied Biosystems, Framingham, Mass.) coupled with a Symbiosis Pharma integrated, on-line SPE-HPLC system (Spark Holland Inc., Plainsboro, N.J.). Analyst QS 2.0 software was used for instrument control, data acquisition and processing. […] Mobile Phase A consisted of 0.1% ammonium hydroxide in water and Mobile Phase B consisted of 0.1% formic acid in acetonitrile. Pharmacokinetic analyses were performed using WinNonlin software version 5.2 (Pharsight Corporation, Mountain View, Calif.).

[5] = read-out: ROCK1 Ki, average Ki (Example 1)
[6] = Balb/c, 15 μmol/kg, mean compound plasma concentration in mice at 15 minutes post oral administration, read-out: Mouse Oral PK
[7] = mice, plasma, 15 min post administration (oral dosing), mean of n = 3 mice, read-out: Plasma Mean Concentration
[8] = IMAP FP, human enzyme, Ki=IC50/(1+([ATP Challenge]/EC50 ATP)), read-out: p70S6K Ki, Avg
[9] = average Ki (Example 31), read-out: p70S6K Ki
[10] = rat, oral, 20-30 μmol/kg, plasma, mean n = 3

T1 sequence (Q13464 17-535 limits assumed): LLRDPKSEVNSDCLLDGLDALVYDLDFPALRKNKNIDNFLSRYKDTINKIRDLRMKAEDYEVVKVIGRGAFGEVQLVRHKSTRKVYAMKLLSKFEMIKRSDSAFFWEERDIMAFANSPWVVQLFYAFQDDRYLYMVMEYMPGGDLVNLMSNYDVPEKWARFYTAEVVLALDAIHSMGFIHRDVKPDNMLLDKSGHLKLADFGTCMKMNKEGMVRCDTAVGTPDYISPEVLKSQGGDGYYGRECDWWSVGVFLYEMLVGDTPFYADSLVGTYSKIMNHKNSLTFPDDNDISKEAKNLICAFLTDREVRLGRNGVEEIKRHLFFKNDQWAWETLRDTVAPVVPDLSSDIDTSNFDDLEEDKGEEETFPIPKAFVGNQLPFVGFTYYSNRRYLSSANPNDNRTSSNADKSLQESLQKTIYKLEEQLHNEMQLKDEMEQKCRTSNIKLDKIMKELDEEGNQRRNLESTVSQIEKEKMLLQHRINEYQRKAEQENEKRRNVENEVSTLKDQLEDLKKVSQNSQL

SMILES	percent inhibition at 1 µM (GCK)	Percent inhibition, Mnk2 (Mnk2; 1 μM test compound)	Percent inhibition, Mnk2 (Mnk2; 10 μM test compound)	Percent inhibition, IRAK1 (IRAK1; 1 μM test compound)	Percent inhibition, IRAK1 (IRAK1; 10 μM test compound)	Percent inhibition, IRAK4 (IRAK4; 1 μM test compound)	Percent inhibition, IRAK4 (IRAK4; 10 μM test compound)	Prevention of airway hyperreactivity [2]	further results
Cc1ccc(CN2CCC[C@@H](Nc3ccc4[nH]ncc4c3)C2)cc1NS(=O)(=O)N(C)C [Compound 1.262]	–	–	–	–	–	–	–	–	Ki (ROCK1): 0.0549 µM; Ki (ROCK1; [5]): 0.0549 µM; concentration at 15 min [1, 6]: 0.285 µM; concentration at 15 min [1, 7]: 0.285 µM; Ki (p70S6K; [8]): 5.44 µM; Ki (p70S6K; [9]): 5.44 µM
NC(=O)Cn1ccc2cc(CN3CCC[C@@H](Nc4ccc5[nH]ncc5c4)C3)ccc21 [Compound 1.162]	93%	111%	65%	100%	97%	105%	88%	–	–
OCCn1ccc2cc(CN3CC[C@@H](Nc4cccc5cnccc45)C3)ccc21 [Compound 2.066]	39%	99%	54%	74%	32%	–	–	prevention of airway hyperreactivity	–
Cc1ccc(CN2CCC[C@H](Nc3ccc4[nH]ncc4c3)C2)cc1NS(=O)(=O)N(C)C [Compound 1.237]	–	–	–	–	–	–	–	–	Ki (ROCK1): 0.287 µM; Ki (ROCK1; [5]): 0.287 µM; concentration at 15 min [1, 6]: 0.178 µM; concentration at 15 min [1, 7]: 0.178 µM; Ki (p70S6K; [8]): 9.87 µM; Ki (p70S6K; [9]): 9.87 µM
NC(=O)Cn1ccc2cc(CN3CC[C@@H](Nc4cccc5cnccc45)C3)ccc21 [Compound 2.059]	75%	49%	12%	87%	30%	63%	22%	prevention of airway hyperreactivity	IL-1β levels in BALF (LPS-challenged mice): reduction
CCc1ccc(CN2CCC[C@@H](Nc3ccc4[nH]ncc4c3)C2)cc1 [Compound 1.136]	–	–	–	–	–	–	–	–	Trachael Ring Contraction (rat tracheal rings): 45%; Reduction in airway hyperresponsiveness ([3]; i.p. route of administration, compared to oral dosing): enhanced reduction; Reduction in airway hyperresponsivness ([3]; oral doses): did not yield a significant reduction; Oral bioavailability ([4]; oral dosing): poor; AUC (0-last) [4, 10]: below the level of quantification; Cmax [4, 10]: below the level of quantification
Cc1ccc(CN2CCC[C@@H](Nc3ccc4[nH]ncc4c3)C2)cc1OCCO [Compound 1.161]	96%	108%	106%	106%	99%	96%	109%	prevention of airway hyperreactivity	–
